# How the values were obtained:
# APOE*3Leiden mice [1] = test: Liver lipid levels, liver appearance and liver histology; format: in vivo; conditions: 1% PS diet; for Fat deposits / lipid-filled vacuoles in liver cells (HPS-stained sections): compared to controls
# APOE*3Leiden mice [2] = test: Plasma parameters, body and liver weight after 1% PS-containing Western-type diet; format: in vivo
# Excerpt: Sphingolipids: The three sphingolipids that represent the most abundant natural complex sphingolipid classes and the three of the simplest natural sphingolipids, the sphingoid bases that can be formed by enzymatic breakdown of complex sphingolipids in the intestine were used. Sphingomyelin (mainly N-palmitoyl-sphingosine-1-phosphocholine) from egg was obtained from Larodan Fine Chemicals (Stockholm, Sweden). Yeast-derived (semi)synthetic ceramide III (N-stearoyl-phytosphingosine), cerebroside (N-stearoyl-phytosphingosine-1-glucose) and phytosphingosine (PS) were from Cosmoferm BV (Delft, the Netherlands). Sphinganine and sphingosine were from Avanti Polar Lipids (Albaster, Ala.). Animals and diets: Heterozygous female APOE*3Leiden transgenic mice (Van Vlijmen et al. 1994. J. Clin. Invest 93:1403-1410.) (6 months old) were fed a Western-type diet (Hope Farms, Woerden, the Netherlands) containing 15% cocoa butter, 0.25% cholesterol, 1% corn oil, 40.5% sucrose, 20% acid casein, 10% corn starch and 5.95% cellulose (all w/w) for 5 weeks. The mice were allowed free access to food and water. Body weight and food intake were monitored weekly. In the first experiment (FIG. 2), the mice were randomized after these 5 weeks into 7 groups (n=6), based on plasma cholesterol, triglycerides, and body weight. Subsequently, the mice were fed for three weeks the same diet without or with 0.1% (w/w) phytosphingosine (PS), sphingosine, sphinganine, cerebroside, ceramide III, or sphingomyelin. Then, the sphingolipid dose was increased to 0.2% (w/w) for 3 weeks and finally to 0.4% (w/w) for 3 weeks. At randomization, and at 3, 6, and 9 weeks, tail vein blood samples were obtained after a 4 h-fast. In all subsequent experiments, female APOE*3Leiden transgenic mice (6 months old) were fed the Western-type diet for 5 weeks, and randomized as described. Subsequently, they were fed the Western-type diet for 5 weeks, or this diet supplemented with 1.0% (w/w) of PS, before being subjected to experimentation.
# Plasma parameters: Tail blood samples were collected in EDTA-coated cups, or in paraoxon-coated capillaries to prevent lipolysis as described in Zambon et al. 1993 (Zambon et al. 1993. J. Lipid Res. 34:1021-1028). Plasma lipid parameters were determined using commercial kits for total cholesterol (C) Chol R1 from Roche Diagnostics, Mannheim, Germany), non-esterified free fatty acids (FFA) (NEFA-C; Wako chemicals, Neuss, Germany), Total triglycerides (TG) (Triglyceride GPO-Trinder; Sigma, St. Louis, Mo.), β-hydroxybutyrate (β-HB; Sigma) and ALAT (Reflotron GPT; Roche). Serum amyloid A (SAA) was measured by ELISA (Biosource, Nivelles, Belgium) and fibrinogen by sandwich ELISA, as described in Koopman et al., 2005 (Koopman et al. 2005. Fibrinol Proteol 11:19). For lipoproteins fractionation, groupwise-pooled plasma was size-fractionated by fast protein liquid chromatography (FPLC) on a Superose 6 column (Äkta; Amersham Pharmacia Biotech, Uppsala, Sweden). Fractions were assayed for total C and TG as described. Hepatic VLDL-TG production: The rate of hepatic VLDL-TG production, de novo apoB secretion, and VLDL composition were determined in overnight-fasted mice. Mice were anaesthetized with vetranquil/fentanyl/midazolam i.p., and injected i.v. with 0.1 ml PBS containing 100 μCi Tran^35S-label™ (ICN Biomedicals, Irvine, Calif.) to measure the de novo apoB synthesis. After 30 min, the animals received a Triton WR1339 injection (Tyloxapol, Sigma; 500 mg/kg body weight in 100 μl saline) to prevent systemic lipolysis of newly-secreted hepatic VLDL-TG (Aalto-Setala et al. 1992. J. Clin. Invest 90:1889-1900.27) Blood samples were drawn at 0, 15, 30, 60, and 90 min after Triton WR1339 injection and plasma TG concentrations were determined. After 90 min, the animals were sacrificed and blood was collected by retro-orbital bleeding for isolation of VLDL. […]
# [3] = 1% PS in Western-type diet, 5 weeks
# [4] = 1% PS in Western-type diet, 5 weeks, 4 h-fasted
structure (smiles),measurement,setting,value
"CCCCCCCCCCCCCC[C@@H](O)[C@@H](O)[C@@H](N)CO [PS, phytosphingosine]","Liver cholesteryl ester, % Δ vs control",APOE*3Leiden mice [1]; 5 weeks,−61%
same,"Liver free cholesterol, % Δ vs control",APOE*3Leiden mice [1]; 5 weeks,−11%
same,"Liver triglycerides, % Δ vs control",APOE*3Leiden mice [1]; 5 weeks,−56%
same,Liver cholesteryl ester,"APOE*3Leiden mice [1]; 5 weeks, 4 h-fasted",5.20 ± 0.79 μg/mg protein
same,Liver free cholesterol,"APOE*3Leiden mice [1]; 5 weeks, 4 h-fasted",6.95 ± 0.78 μg/mg protein
same,Liver triglycerides,"APOE*3Leiden mice [1]; 5 weeks, 4 h-fasted",15.28 ± 3.84 μg/mg protein
same,Fat deposits / lipid-filled vacuoles in liver cells (HPS-stained sections),APOE*3Leiden mice [1],less lipid-filled vacuoles
same,Fat deposits / lipid-filled vacuoles in liver cells (HPS-stained sections),APOE*3Leiden mice [1]; listed as phytosphingosine,absence of such fat deposits
same,Liver appearance at autopsy,APOE*3Leiden mice [1]; control livers enlarged and yellowish,"of normal size, and had a dark-red appearance"
same,Decrease of liver Free C vs control,APOE*3Leiden mice [1]; p<0.05,11%
same,Decrease of liver cholesteryl esters vs control,APOE*3Leiden mice [1]; p<0.05,61%
same,Effects on body weight or food intake,"APOE*3Leiden mice [2]; 1% (w/w) PS in Western-type diet, five weeks",No effects
same,"Body weight, % Δ vs control",APOE*3Leiden mice [2]; [3],n.s.
same,HDL cholesterol (FPLC lipoprotein profile of pooled plasma),APOE*3Leiden mice [2]; [3],did not change
same,"Liver weight, % Δ vs control",APOE*3Leiden mice [2]; [3],−22%
same,"Plasma free fatty acids, % Δ vs control",APOE*3Leiden mice [2]; [3],−36%
same,"Plasma total cholesterol, % Δ vs control",APOE*3Leiden mice [2]; [3],−57%
same,"Plasma triglycerides, % Δ vs control",APOE*3Leiden mice [2]; [3],−58%
same,"Plasma β-hydroxybutyrate, % Δ vs control",APOE*3Leiden mice [2]; [3],n.s.
same,Body weight,APOE*3Leiden mice [2]; [4],22.6 ± 1.0 g
same,Liver weight,APOE*3Leiden mice [2]; [4],1.05 ± 0.08 g
same,Plasma free fatty acids,APOE*3Leiden mice [2]; [4],1.06 ± 0.14 mmol/L
same,Plasma total cholesterol,APOE*3Leiden mice [2]; [4],6.1 ± 1.1 mmol/L
same,Plasma triglycerides,APOE*3Leiden mice [2]; [4],1.19 ± 0.39 mmol/L
same,Plasma β-hydroxybutyrate,APOE*3Leiden mice [2]; [4],0.49 ± 0.39 mmol/L

# Source: US7906488B2, “Sphingolipids in treatment and prevention of steatosis and of steatosis or of hepatotoxicity and its sequelae” (Nederlandse Organisatie Voor …, priority 2004, dated 2011)
